Key:
[1] = molecular target: T1, ATP-dependent translocase ABCB1 (Homo sapiens, UniProt P08183); test: TP_TRANSPORTER: transepithelial transport (basal to apical) in MDR1-expressing LLC-PK1 cells; assay type: functional, cell-based; conditions: pig
[2] = molecular target: T1, ATP-dependent translocase ABCB1; test: TP_TRANSPORTER: inhibition of Cortisol transepithelial transport (basal to apical) (Cortisol: 0.011? uM, Progesterone: 50 uM) in MDR1-expressing LLC-PK1 cells; assay type: functional, cell-based; conditions: pig, llc-pk1, 50 µM

T1 sequence (P08183 whole entry): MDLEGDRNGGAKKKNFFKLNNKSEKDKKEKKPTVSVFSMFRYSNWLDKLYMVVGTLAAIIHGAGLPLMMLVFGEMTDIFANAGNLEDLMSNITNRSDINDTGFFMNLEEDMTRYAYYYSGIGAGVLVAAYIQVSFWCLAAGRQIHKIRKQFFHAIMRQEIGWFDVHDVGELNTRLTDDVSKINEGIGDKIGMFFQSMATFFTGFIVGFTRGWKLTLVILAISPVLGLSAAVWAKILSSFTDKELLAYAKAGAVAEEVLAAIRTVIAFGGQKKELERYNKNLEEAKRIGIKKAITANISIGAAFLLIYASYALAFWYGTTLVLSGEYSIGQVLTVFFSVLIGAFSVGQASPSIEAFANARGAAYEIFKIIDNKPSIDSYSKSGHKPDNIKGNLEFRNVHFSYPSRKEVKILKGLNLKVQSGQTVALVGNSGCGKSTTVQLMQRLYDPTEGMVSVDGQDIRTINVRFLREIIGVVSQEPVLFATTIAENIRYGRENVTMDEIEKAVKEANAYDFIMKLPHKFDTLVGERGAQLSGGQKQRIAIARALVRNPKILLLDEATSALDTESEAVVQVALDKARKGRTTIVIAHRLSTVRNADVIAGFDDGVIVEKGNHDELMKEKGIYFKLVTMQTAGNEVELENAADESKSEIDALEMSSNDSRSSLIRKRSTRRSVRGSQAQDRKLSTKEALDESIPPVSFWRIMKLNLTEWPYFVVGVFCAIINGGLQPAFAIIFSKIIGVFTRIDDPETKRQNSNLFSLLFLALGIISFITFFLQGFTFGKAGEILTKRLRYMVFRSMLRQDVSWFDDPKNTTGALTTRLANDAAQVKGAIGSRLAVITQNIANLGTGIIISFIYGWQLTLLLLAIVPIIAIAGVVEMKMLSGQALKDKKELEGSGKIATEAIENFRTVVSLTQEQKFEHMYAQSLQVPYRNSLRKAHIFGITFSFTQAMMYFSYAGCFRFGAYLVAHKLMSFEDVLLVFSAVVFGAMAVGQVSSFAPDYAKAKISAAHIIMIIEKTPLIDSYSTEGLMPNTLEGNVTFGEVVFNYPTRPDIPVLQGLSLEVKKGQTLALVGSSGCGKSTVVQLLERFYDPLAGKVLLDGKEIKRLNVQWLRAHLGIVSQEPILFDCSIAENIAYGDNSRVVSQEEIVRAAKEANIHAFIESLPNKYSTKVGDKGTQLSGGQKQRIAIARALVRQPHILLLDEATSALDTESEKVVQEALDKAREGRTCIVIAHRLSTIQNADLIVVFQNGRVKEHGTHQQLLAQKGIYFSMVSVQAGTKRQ

C[C@]12CCC(=O)C=C1CC[C@@H]1[C@@H]2[C@@H](O)C[C@]2(C=O)[C@@H](C(=O)CO)CC[C@@H]12 [ALDOSTERONE]
Activity [1]: substrate [+]

CC(=O)[C@H]1CC[C@H]2[C@@H]3CCC4=CC(=O)CC[C@]4(C)[C@H]3CC[C@]12C [PROGESTERONE]
Activity [1]: is not a substrate [-] | Activity [2]: inhibitor [+]

C[C@]12CCC(=O)C=C1CC[C@@H]1[C@@H]2[C@@H](O)C[C@@]2(C)[C@H]1CC[C@]2(O)C(=O)CO [HYDROCORTISONE]
Activity [1]: substrate [+]

From ChEMBL document CHEMBL2073871, “Human P-glycoprotein transports cortisol, aldosterone, and dexamethasone, but not progesterone” (J Biol Chem, 1992)
